Experimental data as given in paper PMC3131501 (Journal of molecular biology, 2011).

Columns and labels:
wild type (wt) BA2930 = wild type (wt) BA2930 (Bacillus anthracis, UniProt A0A3P1UCA6); type: binding
BA2930 = type: biochemical, Bacillus anthracis str. Ames; conditions: pH 7.5

Chain of wild type (wt) BA2930 (A0A3P1UCA6 1-265): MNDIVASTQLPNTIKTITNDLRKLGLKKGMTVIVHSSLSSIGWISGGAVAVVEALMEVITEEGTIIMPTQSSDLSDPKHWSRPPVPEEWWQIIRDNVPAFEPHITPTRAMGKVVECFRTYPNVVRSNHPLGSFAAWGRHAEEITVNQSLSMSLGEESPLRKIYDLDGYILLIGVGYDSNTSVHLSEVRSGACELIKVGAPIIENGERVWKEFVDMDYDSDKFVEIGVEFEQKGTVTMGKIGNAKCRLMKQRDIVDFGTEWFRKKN

Row | SMILES | N (stoichiometry) (wild type (wt) BA2930) | ΔH (wild type (wt) BA2930) [kcal/mol] | −TΔS (wild type (wt) BA2930) [kcal/mol] | Kd (wild type (wt) BA2930; pH 7.5) [µM] | chemical modification by the enzyme (TLC) (BA2930)
1 | CC(=O)SCCNC(=O)CCNC(=O)[C@H](O)C(C)(C)COP(=O)(O)OP(=O)(O)OC[C@H]1O[C@@H](n2cnc3c(N)ncnc32)[C@H](O)[C@@H]1OP(=O)(O)O [AcCoA, Acetyl Coenzyme A] | 1.140±0.013 | -21.71 ± 0.46 | -15.61 | 33.4 ± 2.53 | –
2 | NCC[C@H](O)C(=O)N[C@@H]1C[C@H](N)[C@@H](O[C@H]2O[C@H](CN)[C@@H](O)[C@H](O)[C@H]2O)[C@H](O)[C@H]1O[C@H]1O[C@H](CO)[C@@H](O)[C@H](N)[C@H]1O [Amikacin] | – | – | – | – | modified by the enzyme
3 | CC(C)(COP(=O)(O)OP(=O)(O)OC[C@H]1O[C@@H](n2cnc3c(N)ncnc32)[C@H](O)[C@@H]1OP(=O)(O)O)[C@@H](O)C(=O)NCCC(=O)NCCS [CoA, Coenzyme A] | 1.000±0.031 | -12.47 ± 0.53 | -5.36 | – | –
4 | NC[C@H]1O[C@H](O[C@H]2[C@H](O)[C@@H](O[C@H]3O[C@H](CO)[C@@H](O)[C@H](N)[C@H]3O)[C@H](N)C[C@@H]2N)[C@H](O)[C@@H](O)[C@@H]1O [kanamycin] | – | – | – | – | modified by the enzyme
5 | NC[C@H]1O[C@H](O[C@H]2[C@H](O)[C@@H](O[C@H]3O[C@H](CO)[C@@H](O)[C@H](N)[C@H]3O)[C@H](N)C[C@@H]2N)[C@H](N)C[C@@H]1O [tobramycin] | – | – | – | – | modified by the enzyme
